These results are taken from patent US20240252454A1, “COMPOSITION COMPRISING AN INHIBITOR OF MITOCHONDRIAL TRANSCRIPTION” (LEAD DISCOVERY CENTER GMBH, priority 2021, published 2024).

Molecules are shown by their SMILES.

Common to all, as to assay: SRB assay, IMT combined with inhibitor
Format in all cases: cell-based

One test relates to MV4-11. To be noted: MV4-11 (hematological); concentration series of the labelled inhibitor + fixed concentration of IMT (3S)-1-[(2R)-2-[4-(2-chloro-4-fluoro-phenyl)-2-oxo-chromen-7-yl]oxypropanoyl]piperidine-3-carboxylic acid (Table 3: 40 nM, 120 h); negative=synergistic, positive=antagonistic. Here is the method:
(§1) Solforhodamine B assay is carried out as described in Voigt W. (2005) Sulforhodamine B Assay and Chemosensitivity. (Methods in Molecular Medicine™, vol 110. Humana Press. https://doi.org/10.1385/1-59259-869-2:039).
(§2) The determination of changes in cellular biomass was based on the Solforhodamine B assay format, carried out as described in Voigt W. (2005) Sulforhodamine B Assay and Chemosensitivity. (Methods in Molecular Medicine™, vol 110. Humana Press. https://doi.org/10.1385/1-59259-869-2:039).
(§3) All in vitro cell culture experiments were carried out under near physiological glucose concentrations (5 mM) in at least two independent replicates.
(§4) First, 30 different cell lines from 14 different tissue types were tested in the SRB assay format. The cells were examined individually for changes in growth over a period of 120 hours with dilution series of both inhibitors. Untreated cells were used as a negative control group. Subsequently, a dilution series of the respective MAPK signalling pathway SOCs was treated in combination with a fixed concentration of 40 nM (3S)-1-[(2R)-2-[4-(2-chloro-4-fluoro-phenyl)-2-oxo-chromen-7-yl]oxypropanoyl]piperidine-3-carboxylic acid.

For another test, the system named is PANC1. Conditions: PANC1 (pancreas); concentration series of the labelled inhibitor + fixed concentration of IMT (3S)-1-[(2R)-2-[4-(2-chloro-4-fluoro-phenyl)-2-oxo-chromen-7-yl]oxypropanoyl]piperidine-3-carboxylic acid (Table 3: 40 nM, 120 h); negative=synergistic, positive=antagonistic. The method, then: as §1, §2, §3, §4
Another test deals with HEPG2. To be noted: HEPG2 (liver); concentration series of the labelled inhibitor + fixed concentration of IMT (3S)-1-[(2R)-2-[4-(2-chloro-4-fluoro-phenyl)-2-oxo-chromen-7-yl]oxypropanoyl]piperidine-3-carboxylic acid (Table 3: 40 nM, 120 h); negative=synergistic, positive=antagonistic. The method, then: as §1, §2, §3, §4
The test system of another test is IMR90. Conditions: IMR90 (lung); concentration series of the labelled inhibitor + fixed concentration of IMT (3S)-1-[(2R)-2-[4-(2-chloro-4-fluoro-phenyl)-2-oxo-chromen-7-yl]oxypropanoyl]piperidine-3-carboxylic acid (Table 3: 40 nM, 120 h); negative=synergistic, positive=antagonistic. The method, then:
as §1, §2, §3, §4

The next test deals with A549. To be noted: A549 (lung); concentration series of the labelled inhibitor + fixed concentration of IMT (3S)-1-[(2R)-2-[4-(2-chloro-4-fluoro-phenyl)-2-oxo-chromen-7-yl]oxypropanoyl]piperidine-3-carboxylic acid (Table 3: 40 nM, 120 h); negative=synergistic, positive=antagonistic. Here is the method: as §1, §2, §3, §4
A further test concerns A375. To be noted: A375 (skin); concentration series of the labelled inhibitor + fixed concentration of IMT (3S)-1-[(2R)-2-[4-(2-chloro-4-fluoro-phenyl)-2-oxo-chromen-7-yl]oxypropanoyl]piperidine-3-carboxylic acid (Table 3: 40 nM, 120 h); negative=synergistic, positive=antagonistic. Here is the method: as §1, §2, §3, §4
A further test deals with CALU6. Conditions: CALU6 (lung); concentration series of the labelled inhibitor + fixed concentration of IMT (3S)-1-[(2R)-2-[4-(2-chloro-4-fluoro-phenyl)-2-oxo-chromen-7-yl]oxypropanoyl]piperidine-3-carboxylic acid (Table 3: 40 nM, 120 h); negative=synergistic, positive=antagonistic. The method, then: as §1, §2, §3, §4
A further test deals with U87MG. Conditions: U87MG (brain); concentration series of the labelled inhibitor + fixed concentration of IMT (3S)-1-[(2R)-2-[4-(2-chloro-4-fluoro-phenyl)-2-oxo-chromen-7-yl]oxypropanoyl]piperidine-3-carboxylic acid (Table 3: 40 nM, 120 h); negative=synergistic, positive=antagonistic. The method, then:
as §1, §2, §3, §4

The test system of another test is COLO205. Conditions: COLO205 (colon); concentration series of the labelled inhibitor + fixed concentration of IMT (3S)-1-[(2R)-2-[4-(2-chloro-4-fluoro-phenyl)-2-oxo-chromen-7-yl]oxypropanoyl]piperidine-3-carboxylic acid (Table 3: 40 nM, 120 h); negative=synergistic, positive=antagonistic. Here is the method: as §1, §2, §3, §4
A further test has as its system MIAPACA2. Conditions: MIAPACA2 (pancreas); concentration series of the labelled inhibitor + fixed concentration of IMT (3S)-1-[(2R)-2-[4-(2-chloro-4-fluoro-phenyl)-2-oxo-chromen-7-yl]oxypropanoyl]piperidine-3-carboxylic acid (Table 3: 40 nM, 120 h); negative=synergistic, positive=antagonistic. The method, then: as §1, §2, §3, §4
A further test concerns MHHES1. Conditions: MHHES1 (bone); concentration series of the labelled inhibitor + fixed concentration of IMT (3S)-1-[(2R)-2-[4-(2-chloro-4-fluoro-phenyl)-2-oxo-chromen-7-yl]oxypropanoyl]piperidine-3-carboxylic acid (Table 3: 40 nM, 120 h); negative=synergistic, positive=antagonistic. Here is the method:
as §1, §2, §3, §4

The next test concerns DU145. Conditions: DU145 (prostate); concentration series of the labelled inhibitor + fixed concentration of IMT (3S)-1-[(2R)-2-[4-(2-chloro-4-fluoro-phenyl)-2-oxo-chromen-7-yl]oxypropanoyl]piperidine-3-carboxylic acid (Table 3: 40 nM, 120 h); negative=synergistic, positive=antagonistic. Here is the method: as §1, §2, §3, §4
The next test concerns U2OS. To be noted: U2OS (bone); concentration series of the labelled inhibitor + fixed concentration of IMT (3S)-1-[(2R)-2-[4-(2-chloro-4-fluoro-phenyl)-2-oxo-chromen-7-yl]oxypropanoyl]piperidine-3-carboxylic acid (Table 3: 40 nM, 120 h); negative=synergistic, positive=antagonistic. The method, then:
as §1, §2, §3, §4

For the next test, the system named is A2780. Conditions: A2780 (ovary); concentration series of the labelled inhibitor + fixed concentration of IMT (3S)-1-[(2R)-2-[4-(2-chloro-4-fluoro-phenyl)-2-oxo-chromen-7-yl]oxypropanoyl]piperidine-3-carboxylic acid (Table 3: 40 nM, 120 h); negative=synergistic, positive=antagonistic.

In the case of `O=C(c1cc(Cc2n[nH]c(=O)c3ccccc23)ccc1F)N1CCN(C(=O)C2CC2)CC1` [Olaparib], the “difference between the calculated combinatorial index (BLISS) and the observed combinatorial effect” value in the test on MV4-11 is reported as 0.0407; in the test with PANC1, −0.0430; with HEPG2 it was −0.0439; in the test with IMR90, 0.0084; in the test on A549, 0.0174; with A375, −0.0650. The “difference between the calculated combinatorial index (BLISS) and the observed combinatorial effect” value in the test on CALU6 is recorded as 0.0400; in the test with U87MG, 0.0523; in the test with COLO205, −0.0607; with MIAPACA2, 0.0529; in the test on MHHES1, 0.0269; with DU145, 0.0557. Also, the “difference between the calculated combinatorial index (BLISS) and the observed combinatorial effect” value in the test on U2OS is given as −0.0034; in the test with A2780, −0.0656.

On to `O=C(c1ccc(F)c(F)c1Nc1ccc(I)cc1F)N1CC(O)([C@@H]2CCCCN2)C1` [Cobimetinib], for which the “difference between the calculated combinatorial index (BLISS) and the observed combinatorial effect” value in the test with MV4-11 is recorded as 0.0051; with PANC1, 0.0747; with HEPG2, −0.0133; in the test with IMR90, −0.0073; with A549 it was −0.0490; in the test with A375 it was 0.0443. The “difference between the calculated combinatorial index (BLISS) and the observed combinatorial effect” value was 0.0286 in the test on CALU6; 0.0347 in the test on U87MG; 0.0185 in the test with COLO205; −0.0673 with MIAPACA2; −0.0055 in the test with MHHES1; 0.0164 in the test with DU145. Moreover, the figures for the “difference between the calculated combinatorial index (BLISS) and the observed combinatorial effect” value in the test with U2OS and in the test with A2780 were −0.0663 and −0.0105, respectively.

Regarding `Cn1cnc2c(F)c(Nc3ccc(Br)cc3Cl)c(C(=O)NOCCO)cc21` [Selumetinib], the “difference between the calculated combinatorial index (BLISS) and the observed combinatorial effect” value was 0.0150 with MV4-11; 0.0867 with PANC1; 0.0032 with HEPG2; −0.0291 in the test with IMR90; −0.0519 in the test on A549; 0.0423 in the test with A375. Further, the “difference between the calculated combinatorial index (BLISS) and the observed combinatorial effect” value is reported as 0.0376 in the test on CALU6; 0.0486 with U87MG; 0.0142 with COLO205; −0.0734 in the test on MIAPACA2; 0.0218 with MHHES1; 0.0383 in the test with DU145. The “difference between the calculated combinatorial index (BLISS) and the observed combinatorial effect” value in the test with U2OS is listed as −0.1010; with A2780, −0.0046.
